From ChEMBL document CHEMBL1201862, “PubChem BioAssay data set” (2004)
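Cells were grown in 96-well plates and exposed to each compound for 48 hours at five concentrations; endpoints were interpolated linearly between bracketing concentrations, or set to the highest concentration if not reached. Here, GI50 denotes the concentration required for 50% inhibition of growth.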 Calls of active or inactive are those of the source. Rule as the data show it: active = GI50 up to about 1.1 µM and inactive = higher.

What was measured:
Assay in all cases: inhibition of tumour cell growth, NCI panel, 48 h
786-0 = system: 786-0
NCI-H522 = system: NCI-H522
UACC-62 = system: UACC-62
ACHN = system: ACHN
HL-60 = system: HL-60
MDA-MB-231 = system: MDA-MB-231
HCC 2998 = system: HCC 2998
CCRF-CEM = system: CCRF-CEM
T47D = system: T47D
OVCAR-4 = system: OVCAR-4
DU-145 = system: DU-145
MDA-MB-435 = system: MDA-MB-435
OVCAR-8 = system: OVCAR-8
HCT-15 = system: HCT-15
SK-MEL-2 = system: SK-MEL-2
NCI-H23 = system: NCI-H23
SF-295 = system: SF-295
KM12 = system: KM12
SF-539 = system: SF-539
OVCAR-5 = system: OVCAR-5
NCI/ADR-RES = system: NCI/ADR-RES
NCI-H460 = system: NCI-H460
SK-MEL-28 = system: SK-MEL-28
SW-620 = system: SW-620
HCT-116 = system: HCT-116
MCF7 = system: MCF7
A498 = system: A498
SK-MEL-5 = system: SK-MEL-5
MDA-N = system: MDA-N
Hs-578T = system: Hs-578T
SR = system: SR
SN12C = system: SN12C
COLO 205 = system: COLO 205
HOP-62 = system: HOP-62
HT-29 = system: HT-29
M14 = system: M14
IGROV-1 = system: IGROV-1
PC-3 = system: PC-3
SF-268 = system: SF-268
SNB-19 = system: SNB-19
TK-10 = system: TK-10
EKVX = system: EKVX
BT-549 = system: BT-549
CAKI-1 = system: CAKI-1
SNB-75 = system: SNB-75
HOP-92 = system: HOP-92
A549 = system: A549
OVCAR-3 = system: OVCAR-3
UACC-257 = system: UACC-257
U-251 = system: U-251
LOX IMVI = system: LOX IMVI
MOLT-4 = system: MOLT-4
RPMI-8226 = system: RPMI-8226
UO-31 = system: UO-31
NCI-H226 = system: NCI-H226
RXF 393 = system: RXF 393
Malme-3M = system: Malme-3M
K562 = system: K562
SK-OV-3 = system: SK-OV-3

Measured: GI50

COC(=O)c1ccc(OCc2ccc3nc(-c4ccccc4)c(Cl)nc3c2)cc1
> 100 µM: HCT-15
inactive: 786-0 21 µM | NCI-H522 11.8 µM | UACC-62 > 100 µM | ACHN 48.8 µM | HL-60 40.6 µM | MDA-MB-231 23.2 µM | HCC 2998 > 100 µM | CCRF-CEM > 100 µM | T47D > 100 µM | OVCAR-4 62.1 µM | DU-145 > 100 µM | MDA-MB-435 74.8 µM | OVCAR-8 48 µM | SK-MEL-2 84.7 µM | NCI-H23 47.2 µM | SF-295 46 µM | KM12 > 100 µM | SF-539 33.1 µM | OVCAR-5 > 100 µM | NCI/ADR-RES 65.2 µM | NCI-H460 > 100 µM | SK-MEL-28 > 100 µM | SW-620 > 100 µM | HCT-116 83 µM | MCF7 > 100 µM | A498 > 100 µM | SK-MEL-5 76.6 µM | MDA-N > 100 µM | Hs-578T 30.1 µM | SR > 100 µM | SN12C > 100 µM | COLO 205 76.2 µM | HOP-62 29.4 µM | HT-29 > 100 µM | M14 > 100 µM | IGROV-1 85.5 µM | PC-3 > 100 µM | SF-268 42.9 µM | SNB-19 92.5 µM | TK-10 58.2 µM | EKVX > 100 µM | BT-549 > 100 µM | CAKI-1 28.6 µM | SNB-75 22.9 µM | HOP-92 28.1 µM | A549 86.9 µM | OVCAR-3 > 100 µM | UACC-257 > 100 µM | U-251 27.7 µM | LOX IMVI > 100 µM | MOLT-4 91.6 µM | RPMI-8226 > 100 µM | UO-31 > 100 µM

CCOC(=O)c1c(-c2ccccc2)[nH]c2ccc(Cl)cc2c1=O
inactive: 786-0 38.7 µM | NCI-H522 28 µM | UACC-62 37.7 µM | ACHN 27.6 µM | HL-60 28.2 µM | MDA-MB-231 31.3 µM | HCC 2998 37.9 µM | CCRF-CEM 26.4 µM | T47D 23.7 µM | OVCAR-4 20.5 µM | DU-145 56 µM | MDA-MB-435 34.8 µM | OVCAR-8 31.8 µM | SK-MEL-2 34 µM | NCI-H23 41.1 µM | SF-295 47.8 µM | KM12 34.8 µM | SF-539 29.9 µM | NCI-H226 68.9 µM | OVCAR-5 > 100 µM | NCI/ADR-RES 32.2 µM | NCI-H460 30.3 µM | SK-MEL-28 69.7 µM | SW-620 > 100 µM | HCT-116 27.2 µM | MCF7 31.8 µM | SK-MEL-5 29.8 µM | MDA-N 37.7 µM | RXF 393 35 µM | Hs-578T 35.4 µM | SR 33.3 µM | SN12C 51.4 µM | COLO 205 47.5 µM | HOP-62 65.9 µM | Malme-3M 61.8 µM | HT-29 27.9 µM | M14 49.9 µM | IGROV-1 29.6 µM | PC-3 41.1 µM | K562 28.8 µM | SF-268 50.1 µM | SNB-19 > 100 µM | TK-10 42.8 µM | EKVX 54.6 µM | BT-549 30.8 µM | CAKI-1 37.9 µM | SK-OV-3 45.1 µM | SNB-75 45.8 µM | HOP-92 22 µM | A549 36.6 µM | OVCAR-3 19.5 µM | UACC-257 36 µM | U-251 41.6 µM | LOX IMVI 37.4 µM | MOLT-4 28.3 µM | RPMI-8226 36.9 µM | UO-31 29.4 µM
33.3 µM: HCT-15
